Experimental data published in patent publication EP4624465A1, “COMPOUND SERVING AS DDR1 KINASE INHIBITOR, AND MEDICINE” (Nippon Shinyaku Co., Ltd., priority 2022, dated 2024).
Structures can show the parent of a compound that is named as a salt.

Molecular target: DDR1 kinase (Homo sapiens, UniProt Q08345)
Test: Evaluation of DDR1 kinase inhibition (LANCE Ultra TR-FRET kinase assay)
Assay type: biochemical
Parameters: purchased Carna Biosciences 08-113
Settings: DDR1 protein 0.5 nM, LANCE Ultra ULight-poly GAT substrate, 2 hours at room temperature, duplicate; read-out: DDR-1 IC50

DDR1 kinase, sequence (Q08345 19-876 isoform Q08345-2 limits assumed): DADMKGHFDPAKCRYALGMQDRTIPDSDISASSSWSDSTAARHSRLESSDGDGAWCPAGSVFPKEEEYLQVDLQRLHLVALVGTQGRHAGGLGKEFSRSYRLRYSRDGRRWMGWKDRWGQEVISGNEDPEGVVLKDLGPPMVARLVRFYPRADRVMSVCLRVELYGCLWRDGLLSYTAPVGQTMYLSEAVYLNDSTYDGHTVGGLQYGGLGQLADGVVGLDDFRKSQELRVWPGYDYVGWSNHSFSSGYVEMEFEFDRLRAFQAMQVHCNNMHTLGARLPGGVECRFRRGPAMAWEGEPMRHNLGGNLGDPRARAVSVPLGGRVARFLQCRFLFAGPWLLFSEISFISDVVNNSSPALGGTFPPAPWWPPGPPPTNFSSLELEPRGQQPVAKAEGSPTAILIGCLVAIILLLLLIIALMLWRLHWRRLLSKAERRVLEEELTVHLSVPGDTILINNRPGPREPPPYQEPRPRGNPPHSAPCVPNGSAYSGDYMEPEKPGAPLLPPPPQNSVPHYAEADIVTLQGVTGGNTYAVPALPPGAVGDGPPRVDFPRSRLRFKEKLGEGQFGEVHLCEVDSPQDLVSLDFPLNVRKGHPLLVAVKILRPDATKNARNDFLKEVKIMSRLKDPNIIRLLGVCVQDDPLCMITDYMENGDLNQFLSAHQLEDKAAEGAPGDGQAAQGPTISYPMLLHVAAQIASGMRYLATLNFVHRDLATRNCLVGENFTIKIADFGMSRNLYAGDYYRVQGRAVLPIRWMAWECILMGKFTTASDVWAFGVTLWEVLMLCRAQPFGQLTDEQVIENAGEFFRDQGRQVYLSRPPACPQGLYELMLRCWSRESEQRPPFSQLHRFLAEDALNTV

Compound	IC50 [nM]
Nc1cc(C(=O)N2CC(c3nn(CC4CCC(F)(F)CC4)c4cc(F)cc(F)c34)C2)ccn1 [Compound E-57, 4-(3-{1-[(4,4-difluorocyclohexyl)methyl]-4,6-difluoro-1H-indazol-3-yl}azetidine-1-carbonyl)pyridin-2-amine]	140
Nc1cc(C(=O)N2CC(c3nn(CC(=O)N4CCC[C@H]4COC(F)(F)F)c4cc(F)cc(F)c34)C2)c(F)cn1 [Compound E-175, 2-{3-[1-(2-amino-5-fluoropyridine-4-carbonyl)azetidin-3-yl]-4,6-difluoro-1H-indazol-1-yl}-1-[(2S)-2-[(trifluoromethoxy)methyl]pyrrolidin-1-yl]ethan-1-one]	0.5
Nc1nccc(C(=O)N2CC(c3nn(CC(=O)N4CCC[C@H]4C(F)(F)F)c4ccc(F)cc34)C2)n1 [Compound E-241, 2-{3-[1-(2-aminopyrimidine-4-carbonyl)azetidin-3-yl]-5-fluoro-1H-indazol-1-yl}-1-[(2S)-2-(trifluoromethyl)pyrrolidin-1-yl]ethan-1-one]	4.3
CN(CC(F)(F)F)C(=O)Cn1nc(C2CN(C(=O)c3nc(N)ncc3F)C2)c2cc(F)ccc21 [Compound E-278, 2-{3-[1-(2-amino-5-fluoropyrimidine-4-carbonyl)azetidin-3-yl]-5-fluoro-1H-indazol-1-yl}-N-methyl-N-(2,2,2-trifluoroethyl)acetamide]	6.9
CC1(C)CCCN1C(=O)Cn1nc(C2CN(C(=O)c3ccnc(N)c3)C2)c2ccccc21 [Compound E-221, 2-{3-[1-(2-aminopyridine-4-carbonyl)azetidin-3-yl]-1H-indazol-1-yl}-1-(2,2-dimethylpyrrolidin-1-yl)ethan-1-one]	4.4
CN(CCN1CCOCC1)C(=O)Cn1nc(C2CN(C(=O)c3cc(N)ncc3F)C2)c2ccccc21 [Compound E-264]	170
CC(C)(NC(=O)Cn1nc(C2CN(C(=O)c3ccnc(N)c3)C2)c2ccccc21)C1CC1 [Compound E-234, 2-{3-[1-(2-aminopyridine-4-carbonyl)azetidin-3-yl]-1H-indazol-1-yl}-N-(2-cyclopropylpropan-2-yl)acetamide]	7.9
CC1(c2nn(CC(=O)N3CCC[C@H]3C(F)(F)F)c3ccccc23)CN(C(=O)c2cc(N)ncc2F)C1 [Compound E-271, 2-{3-[1-(2-amino-5-fluoropyridine-4-carbonyl)-3-methylazetidin-3-yl]-1H-indazol-1-yl}-1-[(2S)-2-(trifluoromethyl)pyrrolidin-1-yl]ethan-1-one]	4
O=C(c1ccnc2[nH]ncc12)N1CC(c2nn(CC(=O)N3CCC[C@H]3C(F)(F)F)c3cc(F)cc(F)c23)C1 [Compound E-17]	0.3
Nc1cc(C(=O)N2CC(c3nn(Cc4nnc(C(F)(F)F)o4)c4cccc(F)c34)C2)ccn1 [Compound E-128, 4-[3-(4-fluoro-1-{[5-(trifluoromethyl)-1,3,4-oxadiazol-2-yl]methyl}-1H-indazol-3-yl)azetidine-1-carbonyl}pyridin-2-amine]	180
Nc1cc(C(=O)N2CC(c3nn(Cc4noc(C5(C(F)(F)F)CCC5)n4)c4cccc(F)c34)C2)ccn1 [Compound E-146, 4-{3-[4-fluoro-1-({5-[1-(trifluoromethyl)cyclobutyl]-1,2,4-oxadiazol-3-yl}methyl)-1H-indazol-3-yl]azetidine-1-carbonyl}pyridin-2-amine hydrochloride]	0.4
O=C(c1ccncc1F)N1CC(c2nn(CC(=O)N3CCC[C@H]3C(F)(F)F)c3cc(F)cc(F)c23)C1 [Compound E-142, 2-{4,6-difluoro-3-[1-(3-fluoropyridine-4-carbonyl)azetidin-3-yl]-1H-indazol-1-yl]-1-[(2S)-2-(trifluoromethyl)pyrrolidin-1-yl]ethan-1-one]	7.9
C[C@H]1COC[C@H](C)N1C(=O)Cn1nc(C2CN(C(=O)c3cc(N)ncc3F)C2)c2c(F)cc(F)cc21 [Compound E-182, 2-{3-[1-(2-amino-5-fluoropyridine-4-carbonyl)azetidin-3-yl]-4,6-difluoro-1H-indazol-1-yl}-1-[(3S,5S)-3,5-dimethylmorpholin-4-yl]ethan-1-one]	12
Cc1c(C(=O)N2CC(c3nn(CC(=O)N4CCC[C@H]4COC(F)(F)F)c4cncc(F)c34)C2)ccnc1N [Compound E-44, 2-{3-[1-(2-amino-3-methylpyridine-4-carbonyl)azetidin-3-yl]-4-fluoro-1H-pyrazolo[3,4-c]pyridin-1-yl]-1-[(2S)-2-[(trifluoromethoxy)methyl]pyrrolidin-1-yl]ethan-1-one di-p-toluenesulfonate]	9.2
O=C(c1ccncc1Cl)N1CC(c2nn(CC(=O)N3CCC[C@H]3C(F)(F)F)c3cc(F)cc(F)c23)C1 [Compound E-143, 2-{3-[1-(3-chloropyridine-4-carbonyl)azetidin-3-yl]-4,6-difluoro-1H-indazol-1-yl}-1-[(28)-2-(trifluoromethyl)pyrrolidin-1-yl]ethan-1-one]	4.1
Nc1cc(C(=O)N2CC(c3nn(Cc4nc(-c5ccncc5)no4)c4cccc(F)c34)C2)ccn1 [Compound E-138, 4-[3-(4-fluoro-1-{(S-(pyridin-4-yl)-1,2,4-oxadiazol-5-yl]methyl}-1H-indazol-3-yl)azetidine-1-carbonyl]pyridin-2-amine]	50
Nc1cc(C(=O)N2CCC(c3cn(CC(=O)N4CCC[C@H]4C(F)(F)F)c4cccc(F)c34)CC2)c(F)cn1 [Compound E-10, 2-{3-[1-(2-amino-5-fluoropyridine-4-carbonyl)piperidin-4-yl]-4-fluoro-1H-indol-1-yl}-1-[(2S)-2-(trifluoromethyl)pyrrolidin-1-yl]ethan-1-one]	0.3
Cc1nc(N)sc1C(=O)N1CC(c2nn(CC(=O)N3CCOCC3(C)C)c3ccccc23)C1 [Compound E-7, 2-{3-[1-(2-amino-4-methyl-1,3-thiazole-5-carbonyl)azetidin-3-yl]-1H-indazol-1-yl}-1-(3,3-dimethylmorpholin-4-yl)ethan-1-one]	15
Cc1[nH]ncc1C(=O)N1CC(c2nn(CC(=O)N3CCC[C@H]3C(F)(F)F)c3cc(F)cc(F)c23)C1 [Compound E-165, 2-{4,6-difluoro-3-[1-(5-methyl-1H-pyrazole-4-carbonyl)azetidin-3-yl]-1H-indazol-1-yl}-1-[(28)-2-(trifluoromethyl)pyrrolidin-1-yl]ethan-1-one]	29
CN(CC(F)(F)F)C(=O)Cn1nc(C2CN(C(=O)c3ccnc(N)n3)C2)c2cc(F)c(F)cc21 [Compound E-282, 2-{3-[1-(2-aminopyrimidine-4-carbonyl)azetidin-3-yl]-5,6-difluoro-1H-indazol-1-yl}-N-methyl-N-(2,2,2-trifluoroethyl)acetamide]	52
Nc1cc(C(=O)N2CC(c3nn(CC(=O)NC(C4CC4)C4CC4)c4ccccc34)C2)ccn1 [Compound E-224, 2-{3-[1-(2-aminopyridine-4-carbonyl)azetidin-3-yl]-1H-indazol-1-yl}-N-(dicyclopropylmethyl)acetamide]	18

Second part, the compound after the results:

IC50 [nM]	Compound
59	Nc1cc(C(=O)N2CC(c3nn(CC(=O)NC4CCC(F)(F)CC4)c4ccccc34)C2)ccn1 [Compound E-235, 2-{3-[1-(2-aminopyridine-4-carbonyl)azetidin-3-yl]-1H-indazol-1-yl}-N-(4,4-difluorocyclohexyl)acetamide]
82	Nc1cc(C(=O)N2CC(c3nn(CC(=O)N4CCC5CC54)c4ccccc34)C2)ccn1 (stereo not shown) [Compound E-223, 2-{3-[1-(2-aminopyridine-4-carbonyl)azetidin-3-yl]-1H-indazol-1-yl}-1-{2-azabicyclo[3.1.0)hexan-2-yl}ethan-1-one]
32	Nc1cc(C(=O)N2CC(c3nn(Cc4noc(C(F)(F)F)n4)c4ccccc34)C2)ccn1 [Compound E-217, 4-[3-(1-{[5-(trifluoromethyl)-1,2.4-oxadiazol-3-yl]methyl}-1 H-indazol-3-yl)azetidine-1-carbonyl]pyridin-2-amine]
210	Cc1noc(Cn2nc(C3CN(C(=O)c4ccnc(N)c4)C3)c3c(F)cccc32)n1 [Compound E-109, 4-(3-{4-fluoro-1-[(3-methyl-1,2,4-oxadiazol-5-yl)methyl]-1H-indazol-3-yl}azetidine-1-carbonyl)pyridin-2-amine]
170	COCC(C)(C)NC(=O)Cn1nc(C2CN(C(=O)c3ccnc(N)c3)C2)c2ccccc21 [Compound E-208]
54	Cc1cc2c(C3CN(C(=O)c4ccnc(N)c4C)C3)nn(CC(=O)N3CCO[C@@H](C(F)(F)F)C3)c2cn1 [Compound E-178, 2-{3-[1-(2-amino-3-methylpyridine-4-carbonyl)azetidin-3-yl]-5-methyl-1H-pyrazolol3,4-clpyridin-1-yl}-1-[(2R)-2-(trifluoromethyl)morpholin-4-yl]ethan-1-one dihydrochloride]
2.9	COC[C@@H]1CCCN1C(=O)Cn1nc(C2CN(C(=O)c3cc(N)ncc3F)C2)c2c(F)cc(F)cc21 [Compound E-179, 2-{3-[1-(2-amino-5-fluoropyridine-4-carbonyl)azetidin-3-yl]-4,6-difluoro-1H-indazol-1-yl}-1-f(2S)-2-(methoxymethyl)pyrrolidin-1-yllethan-1-one]
0.8	Nc1cc(C(=O)N2CC(c3nn(CC(=O)N4CCC[C@H]4COC(F)(F)F)c4cc(F)cc(F)c34)C2)ccn1 [Compound E-56, 2-{3-[1-(2-aminopyridine-4-carbonyl)azetidin-3-yl]-4,6-difluoro-1H-indazol-1-yl}-1-[(2S)-2-[(trifluoromethoxy)methyl]pyrrolidin-1-yl]ethan-1-one]
6.5	Nc1cc(C(=O)N2CC(c3nn(CC(=O)N4CCC[C@@H]4C(F)(F)F)c4ccccc34)C2)c(F)cn1 [Compound E-60, 2-{3-[1-(2-amino-5-fluoropyridine-4-carbonyl)azetidin-3-yl]-1H-indazol-1-yl}-1-[(2R)-2-(trifluoromethyl)pyrrolidin-1-yl]ethan-1-one]
34	Nc1cc(C(=O)N2CC(c3nn(Cc4noc(C5CCOCC5)n4)c4cccc(F)c34)C2)ccn1 [Compound E-137]
